ChEMBL document CHEMBL6074686 (Eur J Med Chem, 2025)
Values belong to the molecule of their own block, whether it stands above or below them. Calls of active or inactive are those of the source. The calls are words filed in the database; no cut-off is given here.

Tests used:
A549 = assay: Antitumor activity against human A549 cells assessed as reduction in cell viability incubated for 72 hrs by CCK8 assay; assay type: functional, cell-based; conditions: A549, 72 h
MCF7 = assay: Antitumor activity against human MCF7 cells assessed as reduction in cell viability incubated for 72 hrs by CCK8 assay; assay type: functional, cell-based; conditions: MCF7, 72 h
MDA-MB-231 = assay: Antitumor activity against human MDA-MB-231 cells assessed as reduction in cell viability incubated for 72 hrs by CCK8 assay; conditions: MDA-MB-231, 72 h
SK-OV-3 [1] = assay: Antitumor activity against human SK-OV-3 cells assessed as reduction in cell viability incubated for 72 hrs by CCK8 assay; assay type: functional, cell-based; conditions: SK-OV-3, 72 h
SK-OV-3 [2] = assay: Antitumor activity against human SK-OV-3 cells xenografted in female BALB/c nude mouse assessed as tumor growth inhibition at 10 mg/kg, […] via tail vein once every 2 to 3 days; assay type: functional; conditions: time 2-3 day, read-out: TGI
Tubulin (Homo sapiens) [3] = target: T1, Tubulin (Homo sapiens) (UniProt P68371+Q9H4B7+P0DPH7+P68366+Q13509+Q71U36+P04350+Q3ZCM7+P07437+P68363+Q9BQE3+Q6PEY2+Q13885+Q9BVA1+Q9BUF5); assay: Inhibition of tubulin polymerization (unknown origin) assessed as increase in optical density at 340 nm at 10 uM; assay type: protein-complex assay
Tubulin (Homo sapiens) [4] = target: T1, Tubulin (Homo sapiens); assay: Inhibition of tubulin polymerization in human SK-OV-3 cells at 20 nM incubated for 18 hrs by Alexa Fluor 488 staining based confocal immunofluorescent microscopic analysis; assay type: cell-based

Compound: COc1ccc2c(c1)CCCN2c1nc(-c2cc(OC)c(OC)c(OC)c2)nc2ccc(F)cc12
- IC50 (A549): > 1 µM
- IC50 (MCF7): > 1 µM
- IC50 (MDA-MB-231): > 1 µM
- IC50 (SK-OV-3 [1]): > 1 µM

Compound: COc1cc2c(c(OC)c1OC)-c1ccc(OC)c(=O)cc1[C@@H](NC(C)=O)CC2 [COLCHICINE]
- IC50 (A549): 0.0314 µM
- IC50 (MDA-MB-231): 0.0121 µM
- IC50 (SK-OV-3 [1]): 0.0063 µM

Compound: COc1ccc2c(c1)CCCN2c1nc(N2CCN(C)CC2)nc2ccc(F)cc12
- IC50 (A549): > 1 µM
- IC50 (MCF7): > 1 µM
- IC50 (MDA-MB-231): > 1 µM
- IC50 (SK-OV-3 [1]): > 1 µM

Compound: COc1ccc2c(c1)CCCN2c1nc(NC(C)(C)C)nc2ccc(F)cc12
- IC50 (A549): > 1 µM
- IC50 (MCF7): > 1 µM
- IC50 (MDA-MB-231): > 1 µM
- IC50 (SK-OV-3 [1]): > 1 µM

Compound: COc1ccc2c(c1)CCCN2c1nc(Cl)nc2ccc(Cl)cc12
- IC50 (A549): 0.067 µM
- IC50 (MCF7): 0.0375 µM
- IC50 (MDA-MB-231): 0.0247 µM
- IC50 (SK-OV-3 [1]): 0.0396 µM

Compound: COc1ccc2c(c1)CCCN2c1nc(Cl)nc2ccc(C(F)(F)F)cc12
- IC50 (A549): > 1 µM
- IC50 (MCF7): > 1 µM
- IC50 (MDA-MB-231): > 1 µM
- IC50 (SK-OV-3 [1]): > 1 µM

Compound: CCCNc1nc(N2CCCc3cc(OC)ccc32)c2cc(F)ccc2n1
- IC50 (A549): 0.0193 µM
- IC50 (MCF7): 0.0118 µM
- IC50 (MDA-MB-231): 0.0256 µM
- IC50 (SK-OV-3 [1]): 0.0067 µM

Compound: COc1ccc2c(c1)CCCN2c1nc(NCCCO)nc2ccc(F)cc12
- IC50 (A549): 0.0127 µM
- IC50 (MCF7): 0.006 µM
- IC50 (MDA-MB-231): 0.0093 µM
- IC50 (SK-OV-3 [1]): 0.0057 µM

Compound: COCCNc1nc(N2CCCc3cc(OC)ccc32)c2cc(F)ccc2n1
- IC50 (A549): 0.0228 µM
- IC50 (MCF7): 0.0178 µM
- IC50 (MDA-MB-231): 0.0158 µM
- IC50 (SK-OV-3 [1]): 0.0034 µM

Compound: COc1ccc2c(c1)CCCN2c1nc(NCCOCCOCCO)nc2ccc(F)cc12
- IC50 (A549): 0.0909 µM
- IC50 (MCF7): 0.193 µM
- IC50 (MDA-MB-231): 0.137 µM
- IC50 (SK-OV-3 [1]): 0.0694 µM

Compound: COc1ccc(Nc2nc(N3CCCc4cc(OC)ccc43)c3cc(F)ccc3n2)cc1
- IC50 (A549): > 1 µM
- IC50 (MCF7): > 1 µM
- IC50 (MDA-MB-231): > 1 µM
- IC50 (SK-OV-3 [1]): > 1 µM

Compound: COc1ccc2c(c1)CCCN2c1nc(NC2CC2)nc2ccc(F)cc12
- IC50 (A549): 0.0075 µM
- IC50 (MCF7): 0.0024 µM
- IC50 (MDA-MB-231): 0.0115 µM
- IC50 (SK-OV-3 [1]): 0.0015 µM

Compound: COc1ccc2c(c1)CCCN2c1nc(NC2CCCC2)nc2ccc(F)cc12
- IC50 (A549): > 1 µM
- IC50 (MCF7): > 1 µM
- IC50 (MDA-MB-231): > 1 µM
- IC50 (SK-OV-3 [1]): > 1 µM

Compound: COc1ccc2c(c1)CCCN2c1nc(NCc2ccccc2)nc2ccc(F)cc12
- IC50 (A549): > 1 µM
- IC50 (MCF7): > 1 µM
- IC50 (MDA-MB-231): > 1 µM
- IC50 (SK-OV-3 [1]): > 1 µM

Compound: COCCCNc1nc(N2CCCc3cc(OC)ccc32)c2cc(F)ccc2n1
- IC50 (A549): 0.0331 µM
- IC50 (MCF7): 0.028 µM
- IC50 (MDA-MB-231): 0.0397 µM
- IC50 (SK-OV-3 [1]): 0.0189 µM

Compound: COc1ccc2c(c1)CCCN2c1nc(Cl)nc2ccc(OC)cc12
- IC50 (A549): 0.0334 µM
- IC50 (MCF7): 0.0654 µM
- IC50 (MDA-MB-231): 0.0653 µM
- IC50 (SK-OV-3 [1]): 0.058 µM

Compound: CC(=O)O[C@H]1C(=O)[C@@]2(C)[C@H]([C@H](OC(=O)c3ccccc3)[C@]3(O)C[C@H](OC(=O)[C@H](O)[C@@H](NC(=O)c4ccccc4)c4ccccc4)C(C)=C1C3(C)C)[C@]1(OC(C)=O)CO[C@@H]1C[C@@H]2O [PACLITAXEL]
- IC50 (A549): 0.0017 µM
- inhibition in vivo at 10 mg/kg (SK-OV-3 [2]): 39.1%
- inhibition (Tubulin (Homo sapiens) [3]): Active
- inhibition (Tubulin (Homo sapiens) [4]): Not active; Aggregated Into Bundle Like Filamentary Structure
- IC50 (MCF7): 0.0309 µM
- IC50 (SK-OV-3 [1]): 0.0116 µM

Compound: COc1ccc2c(c1)CCCN2c1nc(N)nc2ccc(F)cc12
- IC50 (A549): 0.0072 µM
- IC50 (MCF7): 0.006 µM
- IC50 (MDA-MB-231): 0.0071 µM
- IC50 (SK-OV-3 [1]): 0.0044 µM

Results, then the molecule that gave them:

- IC50 (A549): > 1 µM
- IC50 (MCF7): > 1 µM
- IC50 (MDA-MB-231): > 1 µM
- IC50 (SK-OV-3 [1]): > 1 µM
Compound: COc1ccc2c(c1)CCCN2c1nc(N2CCCCC2)nc2ccc(F)cc12

- IC50 (A549): > 1 µM
- IC50 (MCF7): > 1 µM
- IC50 (MDA-MB-231): > 1 µM
- IC50 (SK-OV-3 [1]): > 1 µM
Compound: COc1ccc2c(c1)CCCN2c1nc(N2CCCC2)nc2ccc(F)cc12

- IC50 (A549): > 1 µM
- IC50 (MCF7): 0.714 µM
- IC50 (MDA-MB-231): 0.9 µM
- IC50 (SK-OV-3 [1]): 0.471 µM
Compound: CCN(CC)c1nc(N2CCCc3cc(OC)ccc32)c2cc(F)ccc2n1

- IC50 (A549): 0.0298 µM
- IC50 (MCF7): 0.0246 µM
- IC50 (MDA-MB-231): 0.0367 µM
- IC50 (SK-OV-3 [1]): 0.0222 µM
Compound: COc1ccc2c(c1)CCCN2c1nc(Cl)nc2ccc(F)cc12

- IC50 (A549): 0.0644 µM
- IC50 (MCF7): 0.0353 µM
- IC50 (MDA-MB-231): 0.0455 µM
- IC50 (SK-OV-3 [1]): 0.0445 µM
Compound: COc1ccc2c(c1)CCCN2c1nc(N(C)C)nc2ccc(F)cc12

- IC50 (A549): 0.0513 µM
- IC50 (MCF7): 0.0238 µM
- IC50 (MDA-MB-231): 0.0362 µM
- IC50 (SK-OV-3 [1]): 0.0313 µM
Compound: COc1ccc2c(c1)CCCN2c1nc(NC2CCC2)nc2ccc(F)cc12

- IC50 (A549): > 1 µM
- IC50 (MCF7): > 1 µM
- IC50 (MDA-MB-231): > 1 µM
- IC50 (SK-OV-3 [1]): > 1 µM
Compound: COc1ccc2c(c1)CCCN2c1nc(NCCN(C)C)nc2ccc(F)cc12

- IC50 (A549): 0.0095 µM
- IC50 (MCF7): 0.0038 µM
- IC50 (MDA-MB-231): 0.0081 µM
- IC50 (SK-OV-3 [1]): 0.0049 µM
Compound: CCNc1nc(N2CCCc3cc(OC)ccc32)c2cc(F)ccc2n1

- IC50 (A549): 0.0532 µM
- IC50 (MCF7): 0.0604 µM
- IC50 (MDA-MB-231): 0.0575 µM
- IC50 (SK-OV-3 [1]): 0.0316 µM
Compound: COc1ccc2c(c1)CCCN2c1nc(N2CCOCC2)nc2ccc(F)cc12

- IC50 (A549): > 1 µM
- IC50 (MCF7): > 1 µM
- IC50 (MDA-MB-231): > 1 µM
- IC50 (SK-OV-3 [1]): > 1 µM
Compound: COc1ccc(-c2nc(N3CCCc4cc(OC)ccc43)c3cc(F)ccc3n2)cc1

- IC50 (A549): > 1 µM
- IC50 (MCF7): > 1 µM
- IC50 (MDA-MB-231): > 1 µM
- IC50 (SK-OV-3 [1]): > 1 µM
Compound: COc1ccc2c(c1)CCCN2c1nc(Cl)nc2ccc(OC(F)(F)F)cc12

- IC50 (A549): > 1 µM
- IC50 (MCF7): > 1 µM
- IC50 (MDA-MB-231): > 1 µM
- IC50 (SK-OV-3 [1]): > 1 µM
Compound: COc1ccc2c(c1)CCCN2c1nc(NC2CCCCC2)nc2ccc(F)cc12

- IC50 (A549): 0.0297 µM
- IC50 (MCF7): 0.0457 µM
- IC50 (MDA-MB-231): 0.0371 µM
- IC50 (SK-OV-3 [1]): 0.0381 µM
Compound: COc1ccc2c(c1)CCCN2c1nc(Cl)nc2ccc(C)cc12

- IC50 (A549): 0.44 µM
- IC50 (MCF7): 0.553 µM
- IC50 (MDA-MB-231): 0.33 µM
- IC50 (SK-OV-3 [1]): 0.157 µM
Compound: COc1ccc2c(c1)CCCN2c1nc(NCC(C)C)nc2ccc(F)cc12

- IC50 (A549): 0.0152 µM
- IC50 (MCF7): 0.0675 µM
- IC50 (MDA-MB-231): 0.0665 µM
- IC50 (SK-OV-3 [1]): 0.0631 µM
Compound: COc1ccc2c(c1)CCCN2c1nc(Cl)nc2ccc(Br)cc12

- IC50 (A549): 0.0692 µM
- IC50 (MCF7): 0.0471 µM
- IC50 (MDA-MB-231): 0.0611 µM
- IC50 (SK-OV-3 [1]): 0.026 µM
Compound: CCCCNc1nc(N2CCCc3cc(OC)ccc32)c2cc(F)ccc2n1

- IC50 (A549): 0.0457 µM
- IC50 (MCF7): 0.0151 µM
- IC50 (MDA-MB-231): 0.025 µM
- IC50 (SK-OV-3 [1]): 0.0223 µM
Compound: COc1ccc2c(c1)CCCN2c1nc(NC(C)C)nc2ccc(F)cc12

- IC50 (A549): 0.315 µM
- IC50 (MCF7): 0.547 µM
- IC50 (MDA-MB-231): 0.327 µM
- IC50 (SK-OV-3 [1]): 0.16 µM
Compound: COc1ccc2c(c1)CCCN2c1nc(Cl)nc2ccc(I)cc12
